The record followed here is patent US8044025B2 (Research Development Foundation, priority 2000, dated 2011).

Entries after “also recorded” stand apart in the source; their conditions may differ. No end group written: not given here.

For orientation: EC50 means the concentration that produces a half-maximal response. As a reminder, the Ki is a measure of affinity in units of concentration, obtained from inhibition or displacement.

Assay [1] in a line: Nocturnal food intake after icv peptide. It counts as in vivo, rat. The conditions noted are these: 1 μg icv, rats. From the text: (§1) To identify cell groups responsive to central Ucn II administration, and to evaluate the extent to which these may conform to sites of CRF-R2 expression, the induced expression of the immediate-early gene product, Fos, in response; to icv peptide administration was monitored. Adult male Sprague-Dawley rats (250-300 g at start of experiments) and C57 BL/6 mice (25-40 g) were housed in a colony room on a 12:12 light:dark cycle, and with free access to food and water prior to experimentation. For intracerebroventricular (icv) injections, rats were anesthetized with ketamine/xylazine/acepromazine and stereotaxically implanted with a 26 ga guide cannula terminating in the lateral ventricle. For intravenous (iv) administration of peptides, animals were fitted with indwelling jugular venous catheters. […]
To monitor induced patterns of Fos expression, rats were injected at 10 am, either icv or iv with synthetic Ucn II (1, 5 or 10 μg/animal in 2 μl saline for icv injections or 200 μl for iv administration), or vehicle alone, and perfused two hours later. […] Consumption was then measured hourly for 6 hrs and at 12 hrs. Data were analyzed using repeated measures analysis of variance (ANOVA), with the Bonferoni correction for multiple comparisons applied as warranted. […]

The nature of assay [2]: Telemetric gross motor activity after icv peptide. In kind it is in vivo, rat. The conditions noted are these: 1 μg icv, rats, telemetry.
Text: as §1, with “catheters. Rats that received icv injections were also implanted intra-abdominally with a transmitter to remotely monitor gross activity levels and body temperature (Mini-Mitter). After surgery, animals were allowed to recover for 7 days prior to any experimentation, during which time they were handled daily.” for “catheters.”
In these same subjects, gross motor activity and body temperature were monitored telemetrically (FIG. 10B). […] Core body temperature was also recorded, with each peptide provoking comparably mild (0.5-1° C.) and transient (2 hr) hypothermic responses (data not shown).

For assay [3], the target named is T1, CRF-R2 (Mus musculus, UniProt Q60748).
T1 construct: expressed in transfected cells; host or cells: CHO cells, stably transfected
Description: Accumulation of intracellular cAMP in stably transfected CHO cells. The conditions noted are these: peptides 20 min at 37° C. It counts as cell-based. The protocol: (§2) The values were determined from 3-6 independent experiments using stably transfected CHO cells or their membranes for each test peptide. EC50 and Ki values were determined using Prism software. Their log10 values were averaged (γ). The average EC50 or Ki was taken to be 10^γ. The standard deviation of the log10 values was calculated (σ). The ranges given were taken to be: [(10^γ)10^σ or 10^γ/10^σ].
(§3) This significant selectivity for the type 2 receptor was seen also in receptor activation as measured by accumulation of intracellular cAMP. Stably transfected CHO cells (cultured in DMEM/10% FBS) were plated into 48-well tissue culture dishes (Costar) and allowed to recover for 24 hours. The medium was changed to DMEM/0.1% FBS at least two hours before treatment. The cells were preincubated for 30 min with 0.1 mM 3-isobutyl-1-methylxanthine and then exposed to peptides for 20 min at 37° C. Intracellular cAMP was extracted and measured in duplicate from triplicate wells using a RIA kit (Biomedical Technologies). […] The extremely low affinity of Ucn II for CRF-R1 precluded a determination of its efficacy on this receptor.

The target of assay [4] is T2, CRFR1 (Homo sapiens, UniProt P34998).
T2 construct: expressed in transfected cells; host or cells: CHO cells, stably transfected
T2 sequence (P34998 24-415): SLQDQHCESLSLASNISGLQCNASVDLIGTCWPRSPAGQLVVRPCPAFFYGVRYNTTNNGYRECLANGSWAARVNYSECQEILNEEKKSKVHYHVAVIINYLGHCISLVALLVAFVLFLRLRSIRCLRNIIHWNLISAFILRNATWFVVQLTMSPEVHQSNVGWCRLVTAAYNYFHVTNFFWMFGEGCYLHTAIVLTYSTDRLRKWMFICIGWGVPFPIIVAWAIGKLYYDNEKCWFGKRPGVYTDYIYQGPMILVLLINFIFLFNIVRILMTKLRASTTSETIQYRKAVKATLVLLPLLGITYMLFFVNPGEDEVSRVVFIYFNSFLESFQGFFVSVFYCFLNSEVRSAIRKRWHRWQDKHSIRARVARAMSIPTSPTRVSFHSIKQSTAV
The description is as above. In kind it is cell-based. The conditions noted are these: peptides 20 min at 37° C. The protocol: as §2, §3

Assay [5] is described as follows: Food intake after icv hURP. In kind it is in vivo, rat. Particulars: 5 μg icv. The protocol: The effect of human urocortin-related peptide on appetite was also examined in rats. Cannulas for injection of human urocortin-related peptide were surgically into the right lateral ventricle and the animals were allowed to recover for seven days. During the time, the animals were handled daily to acclimatize the animals to the injection procedure. On the day of injection, the animals were injected with either 5 μl of saline or 5 μl of 1 μg/μl human urocortin-related peptide in saline. The amount of food eaten by each animal was recorded every hour for six hours and at fourteen hours.

For assay [6], the target named is T2, CRFR1. The assay can be described thus: Displacement of 125I-Sauvagine binding, CHO membranes (Example 5). The protocol:
(§4) FIGS. 5A and 5B show the human urocortin-related peptide mediated displacement of ^125I-Sauvagine binding to CRFR1 and CRFR2β, respectively. The affinities of Ucn and URP peptides for CRFR1 and CRFR2β_stably expressed in CHO cells were determined by the competitive displacement of the ^125I-Sauvagine.
(§5) Membranes were prepared as described above (29). Binding was performed in 96-well 0.2 μm Durapore plates using the vacuum filtration multiscreen assay system (Millipore). […] Plates were incubated for 1 hour at room temperature, vacuum-filtered, washed twice with binding buffer, and allowed to dry. Individual filters were punched out and counted using a gamma counter.
(In general: Loss of bound radioactivity is the signal in a displacement assay; it reports binding, not function.)

The subject of assay [7] is CRFR2β. Described as above. The conditions noted are these: CRF-R2β versus CRF-R1. The protocol: as §4, §5
Assay [8] concerns the target T3, CRF-R2β (Mus musculus, UniProt Q60748).
T3 construct: expressed in transfected cells; host or cells: CHO cells, stably transfected
The assay can be described thus: Radioreceptor assay, displacement of 125I-[Tyr0,Glu1,Nle17]-sauvagine, CHO cell membranes (Example 4). Particulars: 3-6 experiments, range from SD of log10 values, read-out: CRF-R2 Avg. Ki (nM) (Binding). The protocol: (§6) The affinity of Ucn II to the CRF-R1 and CRF-R2 receptors was evaluated using a radioreceptor assay. Crude membrane fractions were prepared from CHO cells stably expressing either cloned CRF-R1 or CRF-R2β. Test peptides and the radioligand, ^125I-[Tyr^0, Glu^1, Nle^17]-sauvagine, were diluted in assay buffer (20 mM HEPES, 2 mM EGTA, 0.1% BSA, 10% sucrose, pH 7.6) and combined with the receptor membrane preparations in MAGV microtiter plates (Millipore) pre-coated with 0.1% polyethylene imine. The reaction mixture was incubated for 90 min at room temperature followed by rapid washing twice with assay buffer and filtration. The radioligand complex was quantified by gamma radiation counting. Inhibitory binding constants were determined using Prism software.
as §2

Assay [9] addresses T2, CRFR1. The description is as above. The conditions noted are these: 3-6 experiments, range from SD of log10 values, read-out: CRF-R1 Avg. Ki (nM) (Binding). The protocol: as §6, §2
The nature of assay [10]: Body temperature after icv hURP. It counts as in vivo, rat. The conditions noted are these: 5 μg icv, monitored twelve hours. An excerpt: The effect of human urocortin-related peptide on the body temperature of rats was examined. Cannulas for injection of human urocortin-related peptide were surgically into the right lateral ventricle. Telemeters for the continuous unobtrusive analysis of body temperature were implanted intraabdominally. The animals were allowed a post-surgical recovery period of seven days. During the time, the animals were handled daily to acclimatize the animals to the injection procedure. On the day of injection, baseline temperature was for recorded for three hours. At 6:00 p.m. (the onset of lights out) the animals were injected with either 5 μl of saline or 5 μl of 1 μg/μl human urocortin-related peptide in saline. Body temperature was monitored every five minutes for twelve hours.

Assay [11] has as its system Fos expression. Description: hURP-stimulated Fos expression in rat brain. The conditions noted are these: 5 μg icv, rats sacrificed two hours later. In kind it is in vivo. The protocol: Activation of central stress-related cells groups by human urocortin-related peptide was examined by detection of the Fos gene product in the cells following injection with human urocortin-related peptide. Rats were implanted with guide cannulae in a lateral cerebral ventricle seven days prior to experimentation. On the day of testing, the rats were injected with 5 μg synthetic human urocortin-related peptide in 5 μl of sterile saline. The rats were sacrificed two hours later and slides of various brain sections were prepared. The slides were stained by immunoperoxidase localization of Fos-immunoreactivity using a polyclonal serum raised in rabbit against residues 3-16 of the human Fos protein.

Assay [12] in a line: Gross motor activity after icv hURP. The conditions noted are these: 5 μg icv, counts over four hours. In kind it is in vivo, rat. An excerpt:
To determine if human urocortin-related peptide plays a role in the generation of stress response, the effect of human urocortin-related peptide on the gross motor activity of rats was examined. Cannulas were surgically into the right lateral ventricle while telemeters were implanted intraabdominally to allow for continuous monitoring of gross motor activity. The animals were allowed a post-surgical recovery period of seven days. During the time, the animals were handled daily to acclimatize the animals to the injection procedure. On the day of injection, baseline activity was for recorded for four hours. At 6:00 p.m., which was the onset of lights out, the animals received an injection of either 5 μl of saline or 5 μl of saline containing a total of 5 μg of human urocortin-related peptide. Activity counts were summated over a four hour time period.

Assay [13] has as its system rat anterior pituitary cells. Description: ACTH secretion from primary rat anterior pituitary cells. It counts as cell-based. Particulars: primary cultures of rat anterior pituitary cells. The protocol: Secreted ACTH was measured using a kit (Nichols Institute Diagnostics).
For pituitary actions, ACTH secretion response to human urocortin-related peptide was measured in primary cultures of rat anterior pituitary cells as described (30). ACTH levels were determined using the ACTH immunoassay kit from Nichols Institute Diagnostics. The rat anterior pituitary cells were treated with either rat urocortin or human urocortin-related peptide and the level of secreted ACTH was measured, using a kit (Nichols Institute Diagnostics).

T1 sequence (Q60748 27-431 isoform Q60748-2 limits assumed): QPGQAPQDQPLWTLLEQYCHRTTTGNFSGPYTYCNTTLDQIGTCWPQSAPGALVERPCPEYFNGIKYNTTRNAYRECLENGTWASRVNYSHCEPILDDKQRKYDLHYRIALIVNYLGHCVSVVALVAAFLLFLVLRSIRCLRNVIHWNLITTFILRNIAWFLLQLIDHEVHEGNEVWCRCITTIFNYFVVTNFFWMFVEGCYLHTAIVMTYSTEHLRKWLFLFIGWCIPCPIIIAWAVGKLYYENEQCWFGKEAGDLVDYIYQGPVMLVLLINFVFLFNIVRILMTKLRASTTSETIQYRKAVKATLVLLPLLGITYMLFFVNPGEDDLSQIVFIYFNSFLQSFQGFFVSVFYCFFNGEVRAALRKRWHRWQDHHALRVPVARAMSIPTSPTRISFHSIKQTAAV
T3 sequence (Q60748 27-431 isoform Q60748-2 limits assumed): as above

With “CRF: 41-amino acid peptide initiating pituitary-adrenal responses to stress; R1-selective agonist (SEEPPISLDLTFHLLREVLEMARAEQLAQQAHSNRKLMEII; ends and bridges not checked; UniProt P06850 154-194, looked up)”, in [1] (nocturnal phase), the “Degree of suppression of food intake over the 12 hr interval” value is on record as 30%. The “Time post-injection at which food intake is significantly less than saline controls” value in [1] came to 4 h. Besides, the “Gross motor activity versus vehicle” value in assay [2] was “significantly more active than vehicle-treated rats; also recorded: significantly elevated”.

Turning to “IVLSLDVPIGLLQILLEQARARAAREQATTNARILARVGHC-NH2 [URP (human)]”, the concentration for a half-maximal effect (EC50) was 0.42 nM in [3] and > 100 nM in assay [4]. In addition, in assay [5] (over fourteen hours), the “Total food consumed versus control” value is on record as “ate significantly less food than control animals”. In addition, the “Food consumed during each time period versus control” value in assay [5] (per time period) was “especially ate less food during the first and third hours after injection as well as during the final eight hours of the experiment”. The inhibition constant Ki in assay [6] (Example 5, FIG. 5, CHO cells, read-out: Disassociation constant (Ki) for CRF-R1) is 78 nM; in assay [6] (synthesized peptide, as stated in the Summary, read-out: Ki for CRF-R1 (summary statement)) it was 70 nM; in [8], 0.5 nM; in assay [9] it was > 100 nM. In addition, in assay [7], the “Specificity for CRF type II receptor relative to urocortin” value was “much more specific for the corticotropin releasing factor type II receptor than urocortin”. For the same substance, the “Body temperature versus saline controls” value in assay [10] was “lower body temperatures both immediately and at seven hours after injection”. Moreover, the “Fos-immunoreactivity in central stress-related cell groups” value in assay [11] was “Fos-immunoreactivity was detected”. The “Gross motor activity versus saline controls” value in assay [12] is “No significant difference in gross motor activity”. The “Stimulation of ACTH secretion relative to urocortin” value is given as “significantly lower potency compared to urocortin or CRF” in [13] (listed as Human urocortin-related peptide) and “less sensitive to human urocortin-related peptide than to urocortin” in assay [13] (listed as human urocortin-related peptide).
